Results from US9187471B2, “Pyrido [4,3-b] indole and pyrido [3,4-b] indole derivatives and methods of use” (Medivation Technologies, Inc., priority 2010, dated 2015).
Like-named read-outs stand apart in the source and are kept apart here.

What was measured:
[1] = molecular target: T1, human recombinant serotonin (5-Hydroxytryptamine) 5-HT7 receptor (Homo sapiens, UniProt P34969); assay: Serotonin 5-HT7 radioligand binding ([3H]LSD); details: compound at 0.1 μM; for inhibition at 0.1 µM: read-out: Inhibition of ligand binding, Serotonin 5-HT7 (percent inhibition of specific binding)
T1 construct: expressed in transfected cells; host or cells: CHO
Experimental: Lysergic acid diethylamide (LSD) for 120 min. at 25° C. […] Receptor proteins were filtered and washed, the filters were then counted to determine [^3H]LSD specifically bound.

[2] = molecular target: T2, human recombinant histamine H1 receptor (Homo sapiens, UniProt P35367); assay: Histamine H1 radioligand binding ([3H]Pyrilamine); details: read-out: Histamine H1 Binding (1 μM), percent inhibition of specific binding; compound at 1 μM; 1.2 nM [3H]Pyrilamine
T2 construct: expressed in transfected cells; host or cells: CHO-K1
Experimental: To evaluate in radioligand binding assays the activity of compounds of the invention, human recombinant histamine H1 receptor expressed in Chinese hamster ovary (CHO) K1 cells (De Backer, M. et al, Biochem. Biophys. Res. Comm. 197(3):1601, 1993) in a modified Tris-HCl buffer (50 mM Tris-HCl, pH 7.4, 2 mM MgCl2, 100 mM NaCl, 250 mM Sucrose) was used. […] Non-specific binding was estimated in the presence of 1 μM Pyrilamine. Receptor proteins were filtered and washed, the filters were then counted to determine [^3H]Pyrilamine specifically bound. […] Biochemical assay results are presented as the percent inhibition of specific binding in Table 2.

[3] = molecular target: T3, human recombinant serotonin (5-Hydroxytryptamine) 5-HT5A receptor (Homo sapiens, UniProt P47898); assay: Serotonin 5-HT5A radioligand binding ([3H]LSD); details: compound at 0.1 μM
T3 construct: expressed in transfected cells; host or cells: CHO-K1
Experimental: Compounds of the invention were incubated with 1.7 nM [^3H]Lysergic acid diethylamide (LSD) for 60 min at 37° C. […] Receptor proteins were filtered and washed, the filters were counted to determine [^3H]LSD specifically bound.

[4] = molecular target: T4, rat adrenergic α1A receptor (Rattus norvegicus, UniProt P43140); assay: Adrenergic α1A radioligand binding ([3H]Prazosin); details: read-out: Adrenergic (0.1 μM) a1A, percent inhibition of specific binding; compound at 0.1 μM; 0.25 nM [3H]Prazosin
T4 construct: rat adrenergic α1A receptor obtained from Wistar Rat submaxillary glands; from tissue; host or cells: Wistar rat submaxillary glands
T4 sequence (P43140 1-466): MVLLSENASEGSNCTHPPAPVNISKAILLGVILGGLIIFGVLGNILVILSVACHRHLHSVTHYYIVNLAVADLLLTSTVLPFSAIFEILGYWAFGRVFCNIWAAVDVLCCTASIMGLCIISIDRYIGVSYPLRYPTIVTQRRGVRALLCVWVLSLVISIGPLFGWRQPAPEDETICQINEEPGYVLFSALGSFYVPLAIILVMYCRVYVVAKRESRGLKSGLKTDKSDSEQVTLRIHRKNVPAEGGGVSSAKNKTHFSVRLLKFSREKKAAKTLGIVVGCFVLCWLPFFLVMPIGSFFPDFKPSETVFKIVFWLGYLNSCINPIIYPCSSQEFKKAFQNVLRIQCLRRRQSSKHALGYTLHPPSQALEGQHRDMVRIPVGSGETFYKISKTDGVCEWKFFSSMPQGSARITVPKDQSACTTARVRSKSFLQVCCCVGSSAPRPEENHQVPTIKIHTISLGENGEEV
Experimental: To evaluate in radioligand binding assays the activity of compounds of the invention, rat adrenergic α1A receptor obtained from Wistar Rat submaxillary glands (Michel, A. et al, Br. J. Pharmacol. 98:883, 1989) in a modified Tris-HCl buffer (50 mM Tris-HCl buffer, pH 7.4, 0.5 mM EDTA) was used. Compounds of the invention were incubated with 0.25 nM [^3H]Prazosin for 60 min at 25° C. Non-specific binding was estimated in the presence of 10 μM phentolamine Receptor proteins were filtered and washed, the filters were then counted to determine [^3H]Prazosin specifically bound. […] Compounds of the invention were tested in this biochemical assay and percent inhibition of specific binding was determined.

[5] = molecular target: T5, human recombinant serotonin (5-Hydroxytryptamine) 5-HT6 receptor (Homo sapiens, UniProt P50406); assay: Serotonin 5-HT6 radioligand binding ([3H]LSD); details: compound at 0.1 μM; for inhibition at 0.1 µM: read-out: Inhibition of ligand binding, Serotonin 5-HT6 (percent inhibition of specific binding)
T5 construct: expressed in transfected cells; host or cells: HeLa
Text: Receptor proteins were filtered and washed, the filters were then counted to determine [3H]LSD specifically bound.

[6] = molecular target: T6, human recombinant serotonin (5-Hydroxytryptamine) 5-HT2A receptor (Homo sapiens, UniProt P28223); assay: Serotonin 5-HT2A radioligand binding ([3H]Ketanserin); details: read-out: Inhibition of ligand binding, Serotonin 5-HT2A (percent inhibition of specific binding)
T6 construct: expressed in transfected cells; host or cells: CHO-K1
Experimental: Compounds of the invention were incubated with 0.5 nM [^3H]Ketanserin for 60 min at 25° C. Non-specific binding was estimated in the presence of 1 μM Mianserin. Receptor proteins were filtered and washed, the filters were then counted to determine [^3H]Ketanserin specifically bound.

[7] = molecular target: T7, human recombinant adrenergic α2C receptor (Homo sapiens, UniProt P18825); assay: Adrenergic α2C radioligand binding ([3H]MK-912); details: read-out: Adrenergic (0.1 μM) a2C, percent inhibition of specific binding; compound at 0.1 μM; 1 nM [3H]MK-912
T7 construct: expressed in transfected cells; host or cells: insect Sf9 cells
T7 sequence (P18825 1-462): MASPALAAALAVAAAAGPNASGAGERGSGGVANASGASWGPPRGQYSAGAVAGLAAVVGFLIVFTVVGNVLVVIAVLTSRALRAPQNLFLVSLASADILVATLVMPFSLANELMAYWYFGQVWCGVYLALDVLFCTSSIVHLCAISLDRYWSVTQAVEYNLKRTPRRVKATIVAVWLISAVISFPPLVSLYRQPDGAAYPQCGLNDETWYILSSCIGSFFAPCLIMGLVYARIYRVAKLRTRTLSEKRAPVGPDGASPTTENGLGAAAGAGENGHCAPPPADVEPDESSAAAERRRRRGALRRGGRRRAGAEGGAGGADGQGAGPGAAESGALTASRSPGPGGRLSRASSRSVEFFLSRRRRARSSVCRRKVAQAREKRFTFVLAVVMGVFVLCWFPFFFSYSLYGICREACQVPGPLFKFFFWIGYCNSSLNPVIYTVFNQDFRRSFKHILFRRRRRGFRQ
Experimental: To evaluate in radioligand binding assays the activity of compounds of the invention, human recombinant adrenergic α2C receptor expressed in insect Sf9 cells (Uhlen, S. et al, J. Pharmacol. Exp. Ther. 271:1558, 1994) in a modified Tris-HCl buffer (50 mM Tris-HCl, pH 7.4, 12.5 mM MgCl2, 2 mM EDTA) was used. Compounds of the invention were incubated with 1 nM [^3H]MK-912 for 60 min at 25° C. Non-specific binding was estimated in the presence of 10 μM WB-4101. Receptor proteins were filtered and washed, the filters were then counted to determine [^3H]MK-912 specifically bound. […] Compounds of the invention were tested in this biochemical assay and percent inhibition of specific binding was determined.

[8] = molecular target: T8, human recombinant dopamine D2L receptor (Homo sapiens, UniProt P14416); assay: Dopamine D2L radioligand binding ([3H]Spiperone); details: 0.16 nM [3H]Spiperone; for inhibition at 1 µM: read-out: Dopamine D2L (1 μM), percent inhibition of specific binding, compound at 1 μM
T8 construct: expressed in transfected cells; host or cells: CHO
Experimental: Non-specific binding was estimated in the presence of 10 μM Haloperidol. Receptor proteins were filtered and washed, the filters were then counted to determine [^3H]Spiperone specifically bound.

[9] = molecular target: T9, human recombinant serotonin (5-Hydroxytryptamine) 5-HT2C receptor (Homo sapiens, UniProt P28335); assay: Serotonin 5-HT2C radioligand binding ([3H]Mesulergine); details: compound at 0.1 μM; read-out: Inhibition of ligand binding, Serotonin 5-HT2C (percent inhibition of specific binding)
T9 construct: expressed in transfected cells; host or cells: CHO-K1
T9 sequence (P28335 33-458): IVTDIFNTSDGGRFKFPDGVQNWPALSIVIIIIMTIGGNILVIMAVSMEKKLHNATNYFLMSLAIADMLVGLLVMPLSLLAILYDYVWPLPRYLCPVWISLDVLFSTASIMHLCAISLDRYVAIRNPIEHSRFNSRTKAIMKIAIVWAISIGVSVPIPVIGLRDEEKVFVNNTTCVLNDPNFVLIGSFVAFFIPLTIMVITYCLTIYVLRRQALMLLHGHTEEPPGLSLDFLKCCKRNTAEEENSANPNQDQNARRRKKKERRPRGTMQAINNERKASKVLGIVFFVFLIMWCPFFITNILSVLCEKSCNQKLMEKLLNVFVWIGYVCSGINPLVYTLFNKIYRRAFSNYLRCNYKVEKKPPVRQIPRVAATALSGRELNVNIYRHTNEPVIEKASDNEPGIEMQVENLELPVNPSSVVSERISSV
Experimental: Compounds of the invention were incubated with 1 nM [^3H]Mesulergine for 60 min at 25° C. Non-specific binding was estimated in the presence of 1 μM Mianserin. Receptor proteins were filtered and washed, the filters were then counted to determine [^3H]Mesulergine specifically bound.

T6 sequence (P28223 whole entry): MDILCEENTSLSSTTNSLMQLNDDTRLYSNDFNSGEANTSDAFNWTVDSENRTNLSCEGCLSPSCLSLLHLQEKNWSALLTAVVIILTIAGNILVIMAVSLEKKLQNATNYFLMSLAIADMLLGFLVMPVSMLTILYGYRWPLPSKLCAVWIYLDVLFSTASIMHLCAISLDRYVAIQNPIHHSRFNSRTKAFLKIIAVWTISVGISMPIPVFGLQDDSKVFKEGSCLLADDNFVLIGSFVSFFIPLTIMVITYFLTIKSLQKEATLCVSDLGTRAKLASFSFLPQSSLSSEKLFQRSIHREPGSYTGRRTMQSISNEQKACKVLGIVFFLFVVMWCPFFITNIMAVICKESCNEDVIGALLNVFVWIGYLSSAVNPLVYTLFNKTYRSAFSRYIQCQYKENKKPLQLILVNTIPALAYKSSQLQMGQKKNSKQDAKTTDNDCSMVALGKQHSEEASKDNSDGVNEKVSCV
T1 sequence (P34969 whole entry): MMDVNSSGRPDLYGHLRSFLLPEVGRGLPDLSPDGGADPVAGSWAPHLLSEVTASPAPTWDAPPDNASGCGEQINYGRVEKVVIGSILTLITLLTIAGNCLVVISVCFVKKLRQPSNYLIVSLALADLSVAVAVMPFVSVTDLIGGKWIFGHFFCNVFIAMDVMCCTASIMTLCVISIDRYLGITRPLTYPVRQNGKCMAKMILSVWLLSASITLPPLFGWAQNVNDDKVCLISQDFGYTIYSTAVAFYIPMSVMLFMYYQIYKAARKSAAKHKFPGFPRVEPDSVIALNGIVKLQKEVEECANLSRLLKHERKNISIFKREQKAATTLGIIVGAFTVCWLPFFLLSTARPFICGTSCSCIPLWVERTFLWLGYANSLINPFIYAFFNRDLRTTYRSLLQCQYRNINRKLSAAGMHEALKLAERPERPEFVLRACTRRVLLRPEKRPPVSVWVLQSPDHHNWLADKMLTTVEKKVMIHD
T8 sequence (P14416 whole entry): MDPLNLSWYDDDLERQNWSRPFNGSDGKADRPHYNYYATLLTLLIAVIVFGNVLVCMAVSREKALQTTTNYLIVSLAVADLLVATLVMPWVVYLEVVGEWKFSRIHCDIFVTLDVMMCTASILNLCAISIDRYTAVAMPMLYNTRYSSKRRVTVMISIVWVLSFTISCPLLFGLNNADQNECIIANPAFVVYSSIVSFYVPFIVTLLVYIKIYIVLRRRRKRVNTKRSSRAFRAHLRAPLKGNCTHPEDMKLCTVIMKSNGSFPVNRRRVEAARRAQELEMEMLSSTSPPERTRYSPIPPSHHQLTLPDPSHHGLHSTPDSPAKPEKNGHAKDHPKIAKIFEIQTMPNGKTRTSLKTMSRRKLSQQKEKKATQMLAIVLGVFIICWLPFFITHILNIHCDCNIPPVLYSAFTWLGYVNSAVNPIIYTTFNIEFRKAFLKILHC
T2 sequence (P35367 whole entry): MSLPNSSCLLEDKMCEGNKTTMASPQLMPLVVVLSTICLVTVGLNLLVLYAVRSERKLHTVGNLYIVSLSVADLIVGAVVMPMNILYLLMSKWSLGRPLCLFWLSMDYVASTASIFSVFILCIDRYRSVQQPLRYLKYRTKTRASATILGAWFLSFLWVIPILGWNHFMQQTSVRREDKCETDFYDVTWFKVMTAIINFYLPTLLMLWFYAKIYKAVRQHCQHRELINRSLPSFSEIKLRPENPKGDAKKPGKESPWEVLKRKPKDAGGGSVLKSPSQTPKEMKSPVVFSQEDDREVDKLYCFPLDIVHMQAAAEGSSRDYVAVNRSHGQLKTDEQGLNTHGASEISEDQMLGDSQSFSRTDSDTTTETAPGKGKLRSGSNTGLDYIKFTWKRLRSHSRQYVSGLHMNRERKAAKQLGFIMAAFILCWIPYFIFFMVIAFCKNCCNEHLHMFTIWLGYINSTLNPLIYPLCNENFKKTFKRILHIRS
T5 sequence (P50406 whole entry): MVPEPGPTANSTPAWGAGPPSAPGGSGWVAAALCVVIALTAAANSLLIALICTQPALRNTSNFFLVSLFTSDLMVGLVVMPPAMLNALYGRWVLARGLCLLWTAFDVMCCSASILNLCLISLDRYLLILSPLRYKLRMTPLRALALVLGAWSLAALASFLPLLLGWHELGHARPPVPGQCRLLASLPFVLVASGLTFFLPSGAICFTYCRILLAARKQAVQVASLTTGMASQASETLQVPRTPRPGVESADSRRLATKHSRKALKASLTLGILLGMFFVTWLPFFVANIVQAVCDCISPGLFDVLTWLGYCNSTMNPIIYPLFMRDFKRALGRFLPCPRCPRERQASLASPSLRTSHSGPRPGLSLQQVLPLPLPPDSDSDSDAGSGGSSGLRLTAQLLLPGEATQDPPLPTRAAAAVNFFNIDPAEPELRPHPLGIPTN
T3 sequence (P47898 whole entry): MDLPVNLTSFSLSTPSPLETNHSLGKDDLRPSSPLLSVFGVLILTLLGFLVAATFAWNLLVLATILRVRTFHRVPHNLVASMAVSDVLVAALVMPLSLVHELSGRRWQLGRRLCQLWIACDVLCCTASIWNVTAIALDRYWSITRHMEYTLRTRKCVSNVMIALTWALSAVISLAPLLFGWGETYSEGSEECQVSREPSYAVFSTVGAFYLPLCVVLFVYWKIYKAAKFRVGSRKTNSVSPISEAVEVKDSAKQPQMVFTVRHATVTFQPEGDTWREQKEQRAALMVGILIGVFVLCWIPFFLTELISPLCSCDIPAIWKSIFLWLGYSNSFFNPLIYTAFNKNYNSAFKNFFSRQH

| SMILES | inhibition at 0.1 µM [1] [%] | inhibition at 1 µM [2] [%] | inhibition at 0.1 µM ([3]; read-out: Inhibition of ligand binding, Serotonin 5-HT5A (percent inhibition of specific binding)) [%] | inhibition at 0.1 µM [4] [%] | inhibition at 0.1 µM [5] [%] | inhibition at 0.1 µM ([6]; compound at 0.1 μM) [%] | inhibition at 0.1 µM [7] [%] | inhibition at 0.1 µM ([8]; read-out: Dopamine D2L (0.1 μM), percent inhibition of specific binding, compound at 0.1 μM) [%] | Inhibition of ligand binding, Serotonin 5-HT7 (percent inhibition of specific binding) [1] [%] | inhibition at 0.1 µM [9] [%] | Inhibition of ligand binding, Serotonin 5-HT5A (percent inhibition of specific binding) [3] [%] | Inhibition of ligand binding, Serotonin 5-HT6 (percent inhibition of specific binding) [5] [%] | inhibition at 0.1 µM [6] [%] | inhibition at 1 µM [8] [%] |
| --- | --- | --- | --- | --- | --- | --- | --- | --- | --- | --- | --- | --- | --- | --- |
| Cc1cc(C)c2c(c1)c1c(n2-c2cscc2-c2ccncc2)CCN(C)C1 [Compound No. 149] | 11 | -5 | -13 | 14 | 93 | 45 | 2 | 5 |  |  |  |  |  |  |
| Cc1ccc2c(c1)c1c(n2-c2ccccc2-c2ccc(O)nc2)CCN(C)C1 [Compound No. 80, 5-(2-(2,8-dimethyl-3,4-dihydro-1H-pyrido[4,3-b]indol-5(2H)-yl)phenyl)pyridin-2-ol] |  | 28 |  | 15 |  |  | -6 |  | 41 | 11 | 25 | −1 | 28 | 2 |
| Cc1ccc2c(c1)c1c(n2-c2ccsc2)CCN(C)C1 [Compound 14, 2,8-dimethyl-5-thiophen-3-yl-2,3,4,5-tetrahydro-1H-pyrido[4,3-b]indole] | 61 | 86 |  | 30 | 82 | 97 | 4 |  |  | 95 |  |  |  | 50 |
